Tumor cell viability data for one compound are collected here from US20250281610A1, “P2RY2 ACTIVITY MODULATORS” (Deutsches Krebsforschungszentrum Stiftung des öffentlichen …, priority 2022, published 2025).

This assay has as its system SW480 cells. The assay is described as follows: Viability of SW480 cells in co-culture with CEA-specific CAR-T cells (CellTiter-Blue). Conditions: 10 μM AR-C, 48 hours (FIG. 20). Format: cell-based, human. The procedure: FIG. 20. Effects of P2RY2 agonist and P2RY2 antagonist on cancer cell viability in T cell-cancer cell co-cultures. T cells transduced with a CEA-specific CAR (CAR-T) were co-cultured with genetically edited SW480 cells for 48 hours in the absence or presence of 40 μM ATP, 20 μM ATPγS, 10 μM Diquafosol, 5 μM Denufosol and 10 μM AR-C 118925XX (AR-C). Control cells: SW480 cells transduced with non-targeting sgRNA and Cas9 (gNT); P2RY2 deficient cells: SW480 cells transduced with P2RY2-targeting sgRNA and Cas9 (gP2RY2-3, gP2RY2-4); B7-H3 (CD276) deficient cells: SW480 cells transduced with B7-H3-targeting sgRNA and Cas9 (gCD276-1); P2RY2 and B7-H3 double deficient cells: SW480 cells transduced with P2RY2-targeting sgRNA, B7-H3-targeting sgRNA, and Cas9 (gCD276-1 gP2RY2-3 DKO, gCD276-1 gP2RY2-4 DKO); P2RY2 overexpression cells: SW480 cells transduced with the open reading frame of P2RY2 (P2RY2-OE); B7-H3 overexpression cells: SW480 cells transduced with the open reading frame of CD276 (CD276-OE). […] Normalized cell viability of the SW480 cells was determined by the CellTiter-Blue® Cell Viability (Promega) assay after co-culture with CEA CAR-T cells. The end-point cell viability was normalized to SW480 cells, as measured using the CellTiter-Blue® Cell Viability (Promega) assay, in cultures without T cells. […]

For `Cc1ccc2c(c1)C=Cc1cc(C)ccc1C2c1cn(Cc2ccc(C(=O)Nc3nn[nH]n3)o2)c(=O)[nH]c1=S` [AR-C 118925XX], the tumor cell viability result is “reduced”.
